In article PMC5218480 (PLoS ONE, 2017):

Test system: MV-4-11 cells
Test: Gene expression microarray analysis (Affymetrix PrimeView) and GSEA
Format: cell-based, human
Parameters: RFU PODN (11730768_x_at) / Fold change /veh PODN (11730768_x_at) / RFU LINC00158 (11744669_a_at) / Fold change /veh LINC00158 (11744669_a_at) / RFU DUSP10 (11751237_a_at) / Fold change /veh DUSP10 (11751237_a_at) / RFU ID3 (11757404_x_at) / Fold change /veh ID3 (11757404_x_at) / RFU PLEKHG5 (11737974_s_at) / Fold change /veh PLEKHG5 (11737974_s_at) / RFU LRRC4B (11730491_at) / Fold change /veh LRRC4B (11730491_at) / RFU GIMAP4 (11747438_a_at) / Fold change /veh GIMAP4 (11747438_a_at) / RFU KRT8 (11758183_x_at) / Fold change /veh KRT8 (11758183_x_at) / RFU CNN1 (11734310_a_at) / Fold change /veh CNN1 (11734310_a_at) / RFU VPS37D (11726825_at) / Fold change /veh VPS37D (11726825_at) / RFU C10orf10 (11716522_x_at) / Fold change /veh C10orf10 (11716522_x_at) / RFU KIR2DL2 /// KIR2DL4 /// KIR2DL5A /// KIR2DL5B /// KIR2DS1 /// KIR2DS2 /// KIR2DS3 /// KIR2DS4 /// KIR3DL3 /// KIR3DL3 /// KIR3DS1 (11738374_at) / Fold change /veh KIR2DL2 /// KIR2DL4 /// KIR2DL5A /// KIR2DL5B /// KIR2DS1 /// KIR2DS2 /// KIR2DS3 /// KIR2DS4 /// KIR3DL3 /// KIR3DL3 /// KIR3DS1 (11738374_at) / RFU C1QL1 (11718748_at) / Fold change /veh C1QL1 (11718748_at) / RFU TMPRSS4 (11747572_a_at) / Fold change /veh TMPRSS4 (11747572_a_at) / RFU HAMP (11756126_x_at) / Fold change /veh HAMP (11756126_x_at) / RFU RNFT2 (11725882_a_at) / Fold change /veh RNFT2 (11725882_a_at) / RFU NR4A2 (11747474_a_at) / Fold change /veh NR4A2 (11747474_a_at) / RFU ABCC12 (11746883_a_at) / Fold change /veh ABCC12 (11746883_a_at) / RFU TMEM136 (11760407_x_at) / Fold change /veh TMEM136 (11760407_x_at) / RFU CLDN22 /// WWC2 (11732394_at) / Fold change /veh CLDN22 /// WWC2 (11732394_at) / RFU HLA-DPB1 (11760878_x_at) / Fold change /veh HLA-DPB1 (11760878_x_at) / RFU SPINT1 (11716480_a_at) / Fold change /veh SPINT1 (11716480_a_at) / RFU GAP43 (11754022_s_at) / Fold change /veh GAP43 (11754022_s_at) / RFU A4GNT (11735810_at) / Fold change /veh A4GNT (11735810_at) / RFU PRB3 (11715151_x_at) / Fold change /veh PRB3 (11715151_x_at) / RFU TUBB4B (11761932_at) / Fold change /veh TUBB4B (11761932_at) / RFU CAPN14 (11732068_a_at) / Fold change /veh CAPN14 (11732068_a_at) / RFU TMCC2 (11721928_a_at) / Fold change /veh TMCC2 (11721928_a_at) / RFU IRGQ (11745062_a_at) / Fold change /veh IRGQ (11745062_a_at) / RFU FAM174B (11720279_a_at) / Fold change /veh FAM174B (11720279_a_at) / RFU TMPRSS4 (11748680_a_at) / Fold change /veh TMPRSS4 (11748680_a_at) / RFU FAM212B (11763350_a_at) / Fold change /veh FAM212B (11763350_a_at) / RFU PLEKHG5 (11743358_a_at) / Fold change /veh PLEKHG5 (11743358_a_at) / RFU ZSCAN30 (11745921_a_at) / Fold change /veh ZSCAN30 (11745921_a_at) / RFU CMKLR1 (11741424_a_at) / Fold change /veh CMKLR1 (11741424_a_at) / RFU LOC101060620 /// MAPK8IP1 (11723275_at) / Fold change /veh LOC101060620 /// MAPK8IP1 (11723275_at) / RFU SPTSSB (11747773_x_at) / Fold change /veh SPTSSB (11747773_x_at) / RFU PRSS12 (11739890_at) / Fold change /veh PRSS12 (11739890_at) / RFU BIN1 (11741810_x_at) / Fold change /veh BIN1 (11741810_x_at) / RFU WNT11 (11732464_a_at) / Fold change /veh WNT11 (11732464_a_at) / RFU C10orf10 (11716521_a_at) / Fold change /veh C10orf10 (11716521_a_at) / RFU C5orf56 (11738089_at) / Fold change /veh C5orf56 (11738089_at) / RFU CYB561 (11721691_x_at) / Fold change /veh CYB561 (11721691_x_at) / RFU ANKRD19P (11752326_a_at) / Fold change /veh ANKRD19P (11752326_a_at) / RFU OR2T12 /// OR2T33 /// OR2T8 (11738714_s_at) / Fold change /veh OR2T12 /// OR2T33 /// OR2T8 (11738714_s_at) / RFU VCAN (11748164_a_at) / Fold change /veh VCAN (11748164_a_at) / RFU JSRP1 (11732532_at) / Fold change /veh JSRP1 (11732532_at) / RFU KRTAP10-11 (11738290_x_at) / Fold change /veh KRTAP10-11 (11738290_x_at) / RFU MYO3A (11730013_a_at) / Fold change /veh MYO3A (11730013_a_at) / RFU EBF3 (11725865_a_at) / Fold change /veh EBF3 (11725865_a_at) / RFU CAMK2N1 (11719241_x_at) / Fold change /veh CAMK2N1 (11719241_x_at) / RFU C5orf56 (11738088_a_at) / Fold change /veh C5orf56 (11738088_a_at) / RFU OLFML3 (11715873_a_at) / Fold change /veh OLFML3 (11715873_a_at) / RFU LOC100653217 /// NTM (11731650_a_at) / Fold change /veh LOC100653217 /// NTM (11731650_a_at) / RFU MAPK11 (11762145_a_at) / Fold change /veh MAPK11 (11762145_a_at) / RFU FIZ1 (11724087_x_at) / Fold change /veh FIZ1 (11724087_x_at) / RFU OASL (11726364_x_at) / Fold change /veh OASL (11726364_x_at) / RFU SOX15 (11748057_x_at) / Fold change /veh SOX15 (11748057_x_at) / RFU CD79A (11719716_a_at) / Fold change /veh CD79A (11719716_a_at) / RFU HIST1H1D (11736915_at) / Fold change /veh HIST1H1D (11736915_at) / RFU CASKIN2 (11723855_a_at) / Fold change /veh CASKIN2 (11723855_a_at) / RFU LOC730098 (11760151_x_at) / Fold change /veh LOC730098 (11760151_x_at) / RFU OR4N2 (11742367_at) / Fold change /veh OR4N2 (11742367_at) / RFU PRRT2 (11749266_a_at) / Fold change /veh PRRT2 (11749266_a_at) / RFU SNX32 (11753110_a_at) / Fold change /veh SNX32 (11753110_a_at) / RFU CDHR5 (11726645_a_at) / Fold change /veh CDHR5 (11726645_a_at) / RFU RCAN1 (11760418_a_at) / Fold change /veh RCAN1 (11760418_a_at) / RFU FAM167A (11723789_a_at) / Fold change /veh FAM167A (11723789_a_at) / RFU FAM26E (11764081_at) / Fold change /veh FAM26E (11764081_at) / RFU ISYNA1 (11749810_s_at) / Fold change /veh ISYNA1 (11749810_s_at) / RFU ACY1 (11761880_at) / Fold change /veh ACY1 (11761880_at) / RFU 11764098_at / Fold change /veh 11764098_at / RFU SAMD14 (11745864_x_at) / Fold change /veh SAMD14 (11745864_x_at) / RFU NPB (11741838_a_at) / Fold change /veh NPB (11741838_a_at) / RFU TMPRSS6 (11731388_a_at) / Fold change /veh TMPRSS6 (11731388_a_at) / RFU KRTAP10-2 (11738614_at) / Fold change /veh KRTAP10-2 (11738614_at) / RFU ARHGAP8 /// PRR5-ARHGAP8 (11727945_x_at) / Fold change /veh ARHGAP8 /// PRR5-ARHGAP8 (11727945_x_at) / RFU KRTAP5-7 /// NADSYN1 (11734609_at) / Fold change /veh KRTAP5-7 /// NADSYN1 (11734609_at) / RFU RASL12 (11751679_a_at) / Fold change /veh RASL12 (11751679_a_at) / RFU CDKN2B (11736163_a_at) / Fold change /veh CDKN2B (11736163_a_at) / RFU PRF1 (11729649_at) / Fold change /veh PRF1 (11729649_at) / RFU, ZNF638 /// ZNF638-IT1 / Fold change vs veh, ZNF638 /// ZNF638-IT1 / RFU, PANK3 / Fold change vs veh, PANK3 / RFU, SH3YL1 / Fold change vs veh, SH3YL1 / RFU, ZEB2 / Fold change vs veh, ZEB2 / RFU, NRIP1 / Fold change vs veh, NRIP1 / RFU, PTTG1IP / Fold change vs veh, PTTG1IP / RFU, CAPN2 / Fold change vs veh, CAPN2 / RFU, MED14 / Fold change vs veh, MED14 / RFU, SNORA58 / Fold change vs veh, SNORA58 / RFU, C1orf63 / Fold change vs veh, C1orf63 / RFU, LRRFIP1 / Fold change vs veh, LRRFIP1 / RFU, NDUFAF7 / Fold change vs veh, NDUFAF7 / RFU, SLC12A2 / Fold change vs veh, SLC12A2 / RFU, IBTK / Fold change vs veh, IBTK / RFU, ESF1 / Fold change vs veh, ESF1 / Fold change vs veh, TMEM50B / RFU, TAOK1 / Fold change vs veh, TAOK1 / RFU, ACBD3 / Fold change vs veh, ACBD3 / RFU, TMA16 / Fold change vs veh, TMA16 / RFU, RWDD3 / Fold change vs veh, RWDD3 / RFU, BCAT1 / Fold change vs veh, BCAT1 / RFU, EDEM3 / Fold change vs veh, EDEM3 / RFU, TMEM33 / Fold change vs veh, TMEM33 / RFU, WDR75 / Fold change vs veh, WDR75 / RFU, AHCTF1 / Fold change vs veh, AHCTF1 / RFU, TFRC / Fold change vs veh, TFRC / RFU, ZDHHC17 / Fold change vs veh, ZDHHC17 / RFU, NOM1 / Fold change vs veh, NOM1 / RFU, ARL8B / Fold change vs veh, ARL8B / RFU, ZBTB11 / Fold change vs veh, ZBTB11 / RFU, TAMM41 / Fold change vs veh, TAMM41 / RFU, KIAA1704 /// LOC100996395 / Fold change vs veh, KIAA1704 /// LOC100996395 / RFU, ING1 / Fold change vs veh, ING1 / RFU, TRMT61B / Fold change vs veh, TRMT61B / RFU, FUBP3 / Fold change vs veh, FUBP3 / RFU, TP53 / Fold change vs veh, TP53 / RFU, TNKS2 / Fold change vs veh, TNKS2 / RFU, ZFP14 / Fold change vs veh, ZFP14 / RFU, ACTR2 / Fold change vs veh, ACTR2 / RFU, PPP3R1 / Fold change vs veh, PPP3R1 / RFU, PIK3R1 / Fold change vs veh, PIK3R1 / RFU, HNRNPA1 / Fold change vs veh, HNRNPA1 / RFU, RNF170 / Fold change vs veh, RNF170 / RFU, ZNF28 / Fold change vs veh, ZNF28 / RFU, RNGTT / Fold change vs veh, RNGTT / RFU, OGT / Fold change vs veh, OGT / RFU, BRD1 / Fold change vs veh, BRD1 / RFU, MARS / Fold change vs veh, MARS / RFU, ZNF655 / Fold change vs veh, ZNF655 / RFU, FAHD1 / Fold change vs veh, FAHD1 / RFU, BDP1 / Fold change vs veh, BDP1 / RFU, LRRCC1 / Fold change vs veh, LRRCC1 / RFU, ARID1A / Fold change vs veh, ARID1A / RFU, ZNF146 / Fold change vs veh, ZNF146 / RFU, ZNF330 / Fold change vs veh, ZNF330 / RFU, GPN3 / Fold change vs veh, GPN3 / RFU, C9orf123 / Fold change vs veh, C9orf123 / RFU, N4BP2L2 / Fold change vs veh, N4BP2L2 / RFU, ARFIP1 / Fold change vs veh, ARFIP1 / RFU, FAM179B / Fold change vs veh, FAM179B / RFU, BCL10 / Fold change vs veh, BCL10 / RFU, UHRF1BP1L / Fold change vs veh, UHRF1BP1L / RFU, BET1 / Fold change vs veh, BET1 / RFU, CNOT2 / Fold change vs veh, CNOT2 / RFU, ZNF268 / Fold change vs veh, ZNF268 / Fold change vs veh, ZNF507 / RFU, DGCR2 / Fold change vs veh, DGCR2 / RFU, WDSUB1 / Fold change vs veh, WDSUB1 / Fold change vs veh, HSP90B1 /// MIR3652 / RFU, ADSS / Fold change vs veh, ADSS / RFU, GK / Fold change vs veh, GK / RFU, ZNF148 / Fold change vs veh, ZNF148 / RFU, TAF9 / Fold change vs veh, TAF9 / RFU, SLC1A5 / Fold change vs veh, SLC1A5 / RFU, SLMO2 / Fold change vs veh, SLMO2 / RFU, ABCC4 / Fold change vs veh, ABCC4 / RFU, LOC101060439 /// RAP1B / Fold change vs veh, LOC101060439 /// RAP1B / RFU, RFX7 / Fold change vs veh, RFX7 / RFU, GTPBP10 / Fold change vs veh, GTPBP10 / RFU, CNEP1R1 / Fold change vs veh, CNEP1R1 / RFU, BIVM-ERCC5 /// ERCC5 / Fold change vs veh, BIVM-ERCC5 /// ERCC5 / RFU, ILF3 / Fold change vs veh, ILF3 / RFU 11762660_at / Fold change /veh 11762660_at / RFU VCAN (11757783_s_at) / Fold change /veh VCAN (11757783_s_at) / RFU DDX43 (11728927_at) / Fold change /veh DDX43 (11728927_at) / RFU KRT8 (11758188_x_at) / Fold change /veh KRT8 (11758188_x_at) / RFU NKD1 (11759106_at) / Fold change /veh NKD1 (11759106_at) / RFU SRD5A1 (11742802_a_at) / Fold change /veh SRD5A1 (11742802_a_at) / RFU TPSAB1 /// TPSB2 (11721975_s_at) / Fold change /veh TPSAB1 /// TPSB2 (11721975_s_at) / RFU GSTM3 (11746129_a_at) / Fold change /veh GSTM3 (11746129_a_at) / RFU IL23R (11737362_x_at) / Fold change /veh IL23R (11737362_x_at) / RFU TMEM51 (11727254_a_at) / Fold change /veh TMEM51 (11727254_a_at) / RFU PIWIL2 (11732686_x_at) / Fold change /veh PIWIL2 (11732686_x_at) / RFU ORM1 (11744905_x_at) / Fold change /veh ORM1 (11744905_x_at) / RFU CCDC152 (11743942_at) / Fold change /veh CCDC152 (11743942_at) / RFU ECM1 (11717891_a_at) / Fold change /veh ECM1 (11717891_a_at) / RFU IL23R (11748794_a_at) / Fold change /veh IL23R (11748794_a_at) / RFU TNFAIP8L3 (11732012_x_at) / Fold change /veh TNFAIP8L3 (11732012_x_at) / RFU MBOAT4 (11741988_at) / Fold change /veh MBOAT4 (11741988_at) / RFU 11764193_at / Fold change /veh 11764193_at / RFU TMEM53 (11763286_at) / Fold change /veh TMEM53 (11763286_at) / RFU MAGEB2 (11727129_at) / Fold change /veh MAGEB2 (11727129_at) / RFU TMEM200A (11744735_a_at) / Fold change /veh TMEM200A (11744735_a_at) / RFU CCDC152 (11751479_a_at) / Fold change /veh CCDC152 (11751479_a_at) / RFU FAM211A (11726209_a_at) / Fold change /veh FAM211A (11726209_a_at) / RFU RGS16 (11746705_a_at) / Fold change /veh RGS16 (11746705_a_at) / RFU VCAN (11755009_s_at) / Fold change /veh VCAN (11755009_s_at) / RFU RHOB (11743442_s_at) / Fold change /veh RHOB (11743442_s_at) / RFU RGS16 (11720943_a_at) / Fold change /veh RGS16 (11720943_a_at) / RFU RGS16 (11720944_at) / Fold change /veh RGS16 (11720944_at) / RFU, VPS4B / Fold change vs veh, VPS4B / RFU, CREB1 / Fold change vs veh, CREB1 / RFU, DNAJC13 / Fold change vs veh, DNAJC13 / RFU, GNAQ / Fold change vs veh, GNAQ / RFU, CDK5R1 / Fold change vs veh, CDK5R1 / RFU, ZRANB3 / Fold change vs veh, ZRANB3 / RFU, CUL4A / Fold change vs veh, CUL4A / RFU, CCNY / Fold change vs veh, CCNY / RFU, UFL1 / Fold change vs veh, UFL1 / RFU, COG3 / Fold change vs veh, COG3 / RFU, DIAPH2 / Fold change vs veh, DIAPH2 / RFU, SKA2 / Fold change vs veh, SKA2 / RFU, AFF3 / Fold change vs veh, AFF3 / RFU, LMF1 / Fold change vs veh, LMF1 / RFU, IPO11 / Fold change vs veh, IPO11 / RFU, DFFB / Fold change vs veh, DFFB / RFU, FOXP1 / Fold change vs veh, FOXP1 / RFU, CARD8 / Fold change vs veh, CARD8 / RFU, STRN3 / Fold change vs veh, STRN3 / RFU, ADK / Fold change vs veh, ADK / RFU, RASSF2 / Fold change vs veh, RASSF2 / RFU, WIPF1 / Fold change vs veh, WIPF1 / RFU, LARP1B / Fold change vs veh, LARP1B / RFU, RASA1 / Fold change vs veh, RASA1 / RFU, RB1 / Fold change vs veh, RB1 / RFU, PPFIA1 / Fold change vs veh, PPFIA1 / RFU, MAT2A / Fold change vs veh, MAT2A / RFU, CCT5 / Fold change vs veh, CCT5 / RFU, WDR92 / Fold change vs veh, WDR92 / RFU, CUX1 / Fold change vs veh, CUX1 / RFU, TTC7A / Fold change vs veh, TTC7A / RFU, TMEM135 / Fold change vs veh, TMEM135 / RFU, DEPTOR / Fold change vs veh, DEPTOR / RFU, CPM / Fold change vs veh, CPM / RFU, DNAJB6 / Fold change vs veh, DNAJB6 / RFU, CACNA2D3 / Fold change vs veh, CACNA2D3 / RFU, DTX4 / Fold change vs veh, DTX4 / RFU, TFCP2 / Fold change vs veh, TFCP2 / RFU, GMCL1 /// GMCL1P1 / Fold change vs veh, GMCL1 /// GMCL1P1 / RFU, AEBP2 / Fold change vs veh, AEBP2 / RFU, SNHG1 /// SNORD22 /// SNORD25 /// SNORD26 /// SNORD27 /// SNORD28 /// SNORD29 /// SNORD31 / Fold change vs veh, SNHG1 /// SNORD22 /// SNORD25 /// SNORD26 /// SNORD27 /// SNORD28 /// SNORD29 /// SNORD31 / Fold change (Aza/veh), C12orf56 (ProbeSet 11735607_a_at) / Fold change (ACY-1035/veh), C12orf56 (ProbeSet 11735607_a_at) / Fold change (Aza/veh), FGFR1OP (ProbeSet 11751329_s_at) / Fold change (ACY-1035/veh), FGFR1OP (ProbeSet 11751329_s_at) / Fold change (Aza/veh), VPS36 (ProbeSet 11739960_a_at) / Fold change (ACY-1035/veh), VPS36 (ProbeSet 11739960_a_at) / RFU SYPL1 (11715823_x_at) / Fold change /veh SYPL1 (11715823_x_at) / RFU IGFBP7 (11715501_s_at) / Fold change /veh IGFBP7 (11715501_s_at) / RFU REEP3 (11722064_at) / Fold change /veh REEP3 (11722064_at) / RFU IGLL1 (11728026_x_at) / Fold change /veh IGLL1 (11728026_x_at): dose or concentration left out as unconfirmed
Settings: ProbeSet 11749551_a_at; LIST B

Nc1ncn([C@@H]2O[C@H](CO)[C@@H](O)[C@H]2O)c(=O)n1 [azacitidine]
Fold change vs veh, RNGTT: 1.02
